Results: US7531676B2, “Lipids” (Celltech R & D Limited, priority 1999, dated 2009)
Counter-ions that a name gives are not always drawn.

Experiments:
Plasmid DNA (pEG/acZ) = assay: Agarose gel electrophoresis of lipid/plasmid DNA complexes (DNA retardation/condensation); type: binding
Protocol: Plasmid DNA (pEG/acZ) was prepared at a concentration of 120 μg/ml in water. A lipid according to the invention [for example the hexamine H18 described in the Example above] was prepared in a range of concentrations such that charge ratios of lipid:DNA of 0.25:1, 1:1, 2:1, 4:1, 8:1 would be obtained (based on the assumption that DNA at 120 μg/ml is equivalent to 0.387 mM of negative charge, and the hexamine H18 for example at 10 mg/ml is equivalent to 36.23 mM of positive charge). An equal volume of DNA was added dropwise to a vortexing tube containing the lipid in water. For DNase treatment, DNase I (FPLCpure, Pharmacia) was added at a concentration of 1 unit/1 μg of DNA and tubes were incubated at 37° C. for 10 minutes. To inhibit further action of DNase, EGTA was added to a final concentration of 25 mM. For pronase treatment, protease XIV (Sigma) was added to samples to a final concentration of 150 μg/ml, and samples incubated for 30 min at 37° C. Complexes were disrupted in 0.5% SDS with incubation at 55° C. for 20 min. Serum treatment involved incubating the samples in the presence of 50% foetal calf serum (final concentration) for 30 min at 37° C. EGTA was added to a final concentration of 50 mM in an attempt to prevent subsequent action of serum-associated nucleases. Finally, all samples were analysed by electrophoresis on 0.8% agarose gels.

protease XIV (pronase) = assay: Pronase treatment of lipid/DNA complexes, plasmid integrity by gel; settings: protease XIV 150 μg/ml, 30 min at 37° C.
Text: (§1) One of the ultimate goals of current gene therapy research is to develop a delivery system which will remain stable and effective in vivo, since this would remove the need for expensive and time-consuming ex-vivo manipulations. Since intravenous administration offers the possibility of delivery to the largest number of tissue sites, survival of the gene delivery complex in the presence of serum could be an important feature of any effective technology. Many published studies have demonstated the susceptibility of gene delivery complexes to inactivation by serum even at levels as low as 10%. This effect is due, at least in part, to the destabilisation of complexes by a poorly understood mechanism, and this can lead to degradation of the DNA within the complex by serum-associated nucleases. We have therefore formed complexes between the lipids of the invention and plasmid DNA and subjected these to treatment with purified DNase and pronase as well as with 50% foetal calf serum. Integrity of the plasmid DNA was then measured.
(§2) Plasmid DNA (pEG/acZ) was prepared at a concentration of 120 μg/ml in water. […] Finally, all samples were analysed by electrophoresis on 0.8% agarose gels.

DNase I = assay: DNase treatment of lipid/DNA complexes, plasmid integrity by gel; settings: charge ratio of at least 2:1; DNase I 1 unit/1 μg DNA, 37° C., 10 minutes
Text: as §1, §2

[1] = tested on: Chinese Hamster Ovary (CHO) cells; assay: CHO transfection with lipid condensed DNA, beta-galactosidase reporter; type: cell-based; settings: for β-galactosidase in cell extract mUnits per mg protein: CHO cells, Lipid:DNA mass ratio 8:1, pEG/acZ plasmid; for β-galactosidase expression in the CHO cells (in words): lipid condensed DNA versus non-condensed DNA control (undetectable)
Protocol: Plasmid DNA (pEG/acZ) was prepared at concentrations of typically 60 or 120 μg/ml in water. Solutions of lipids according to the invention were prepared in water over a range of concentrations (typically 30 to 960 μg/ml). An equal volume of DNA was added dropwise to a tube containing a solution of the lipids whilst vortexing the tube.
Chinese Hamster Ovary (CHO) cells were seeded in to 24 well plates at 100,000 cells per well 24 h before experiment. Cells were washed once in Optimem™ medium prior to transfection. Wash medium was removed and replaced with 0.5 ml of Optimem™ to which the required amount of lipid condensed DNA was added (typically 1 to 5 μg DNA equivalent). Usually three replicate transfection wells were set up per condensed DNA sample tested. Cells were incubated for a further 34 h at 37° C., 5% CO2 before removal of the complex and additon of 1 ml of fresh medium (Iscoves™ medium: modified DMEM plus glutamate, asparagine, adenosine, guanosine, cytidine, uridine, thymidine and 10% dialysed foetal calf serum). Cells were cultured for a further 48-72 hours before harvesting and assay. Levels of Beta galactosidase reporter gene activity were determined using an enzyme assay system from Promega as follows. Cells were washed twice with I ml of phosphate buffered saline and solubilised in 200 ul of 1× cell lysis buffer. 50 ul of cell extract was incubated with the provided buffer and substrate o-nitrophenyl-β-D-galactopyranoside and the optical density measured spectrophoto-metrically. Levels of β-gal expression were quantitated by reference to the standard curve and related to the amount of protein in the extract (measured using the BCA assay kit from Pierce) to give a final value expressed as mU of β-gal per mg of protein.

| SMILES | mobility of plasmid DNA through gel (Plasmid DNA (pEG/acZ); charge ratio of 2:1 (H18:DNA), 0.8% agarose gel) | visibility of plasmid DNA by ethidium bromide fluorescence (DNA fully condensed) (Plasmid DNA (pEG/acZ); charge ratios higher than 2:1) | resistance of lipid/DNA condensates to treatment by pronase (protease XIV (pronase)) | resistance of condensed DNA to treatment by DNase (DNase I) | β-galactosidase in cell extract mUnits per mg protein [1] [mUnits per mg protein] | β-galactosidase expression in the CHO cells (in words) [1] |
| --- | --- | --- | --- | --- | --- | --- |
| NCCCNCCCCNCC(CCCCCCNC(=O)CCCCCCCCCCCCCCCCCCCCCCCNC(=O)[C@H](O)[C@@H](O)[C@H](O)[C@H](O)CO)CNCCCCNCCCN (stereo in doubt) [Lipid H18, (trifluoroacetate) salt] | no DNA entered the gel | no longer visible | resistant | resistant | 40 ± 9 | significant β-galactosidase expression |
| NCCCCNCC(CCCCCCNC(=O)CCCCCCCCCCCCCCCCCCCCCCCNC(=O)[C@H](O)[C@H](O)[C@H](O)[C@H](O)CO)CNCCCCN (stereo in doubt) [Lipid H3, (trifluoroacetate) salt] | – | – | – | – | 11 ± 4 | significant β-galactosidase expression |
